Laboratory results taken from patent publication US5049654A, “Calcitonin gene related peptide derivatives” (Toyo Jozo Kabushiki Kaisha, priority 1986, dated 1991).
Positions of bridges follow the written chain, without caps; N, C: chain ends. Non-standard residues stand in square brackets, D forms with d. Residues, ends and D or L forms follow the SMILES beside them. Asu = N[C@@H](CCCCCC(=O)O)C(=O)O; Mpa = O=C(O)CCS

Assays:
Wistar rats [1] = assay: Serum phosphate reducing activity, i.v. into the tail vein of Wistar rats, method of Goldenberg et al.; assay type: in vivo; details: rat; for reduction of serum phosphate concentration as compared with control group: vs dissolving medium group
Protocol: (§1) Desalanyl-deamino-c-CGRP, desalanyl-[Asu^2,7 -c-CGRP and desalanyl-[Asp^3, Asu^2,7 ]-c-CGRP (each 80 μg), and c-CGRP (Japan. Patent Unexam. Publ. No. 61-273581) and known h-CGRP (each 80 μg for control group) dissolved in citrate buffer, pH 6.5, containing 0.1% bovine serum albumin (hereinafter designated dissolving medium) (1 ml) were administered intravenously into the tail vein of Wistar rats, body weight 80-90 g, 5-6 rats in one group, at 20 or 80 μg/kg. After 30 and 60 mins. of administration, blood samples were collected from the abdominal descending aorta. The serum calcium concentration was measured by atomic adsorption spectrophotometry. Serum phosphate was measured by a method according to Goldenberg et al. [Clin. Chem., 12: 872-882 (1966)].

Wistar rats [2] = assay: Serum calcium reducing activity, i.v. into the tail vein of Wistar rats, atomic adsorption spectrophotometry; assay type: in vivo; details: rat; for reduction of serum calcium concentration as compared with control group: vs dissolving medium group
Protocol: as §1

Physical properties: pI = assay type: physicochemical
[3] = test peptide 20 μg/kg vs c-CGRP 20 μg/kg
[4] = test peptide 20 μg/kg vs h-CGRP 80 μg/kg
[5] = test peptide 80 μg/kg vs c-CGRP at equivalent dose
[6] = test peptide 80 μg/kg vs h-CGRP 80 μg/kg

| pI (Physical properties: pI) | SMILES | duration of serum phosphate reducing activity (Wistar rats [1]; 20 μg/kg i.v.) [h] | reduction of serum phosphate concentration as compared with control group (Wistar rats [1]; 20 μg/kg i.v., FIG. 2) | duration of serum phosphate reducing activity (Wistar rats [1]; 80 μg/kg i.v.) | reduction of serum phosphate concentration as compared with control group (Wistar rats [1]; 80 μg/kg i.v., FIGS. 2 and 4) | serum phosphate reducing activity compared with c-CGRP (Wistar rats [1]; [3]) | serum phosphate reducing activity compared with h-CGRP (Wistar rats [1]; [4]) | serum phosphate reducing activity compared with c-CGRP (Wistar rats [1]; [5]) | serum phosphate reducing activity compared with h-CGRP (Wistar rats [1]; [6]) | duration of serum calcium reducing activity (Wistar rats [2]; 20 μg/kg i.v.) [h] | reduction of serum calcium concentration as compared with control group (Wistar rats [2]; 20 μg/kg i.v., FIG. 1) | duration of serum calcium reducing activity (Wistar rats [2]; 80 μg/kg i.v.) | reduction of serum calcium concentration as compared with control group (Wistar rats [2]; 80 μg/kg i.v., FIGS. 1 and 3) | serum calcium reducing activity compared with c-CGRP (Wistar rats [2]; [3]) | serum calcium reducing activity compared with h-CGRP (Wistar rats [2]; [4]) | serum calcium reducing activity compared with c-CGRP (Wistar rats [2]; [5]) | serum calcium reducing activity compared with h-CGRP (Wistar rats [2]; [6]) |
| --- | --- | --- | --- | --- | --- | --- | --- | --- | --- | --- | --- | --- | --- | --- | --- | --- | --- |
| more than 10.25 | CC(C)C[C@H](NC(=O)[C@H](CCCNC(=N)N)NC(=O)[C@H](Cc1c[nH]cn1)NC(=O)[C@@H](NC(=O)[C@@H](NC(=O)[C@@H]1CSSCCC(=O)N[C@@H](CC(N)=O)C(=O)N[C@@H]([C@@H](C)O)C(=O)N[C@@H](C)C(=O)N[C@@H]([C@@H](C)O)C(=O)N1)C(C)C)[C@@H](C)O)C(=O)N[C@@H](C)C(=O)N[C@@H](CC(=O)O)C(=O)N[C@@H](Cc1ccccc1)C(=O)N[C@@H](CC(C)C)C(=O)N[C@@H](CO)C(=O)N[C@@H](CCCNC(=N)N)C(=O)N[C@@H](CO)C(=O)NCC(=O)NCC(=O)N[C@H](C(=O)NCC(=O)N[C@@H](CCCCN)C(=O)N[C@@H](CC(N)=O)C(=O)N[C@@H](CC(N)=O)C(=O)N[C@@H](Cc1ccccc1)C(=O)N[C@H](C(=O)N1CCC[C@H]1C(=O)N[C@H](C(=O)N[C@@H](CC(N)=O)C(=O)N[C@H](C(=O)NCC(=O)N[C@@H](CO)C(=O)N[C@@H](CCCCN)C(=O)N[C@@H](C)C(=O)N[C@@H](Cc1ccccc1)C(N)=O)C(C)C)[C@@H](C)O)C(C)C)C(C)C [desalanyl-deamino-c-CGRP] ([Mpa]NTATCVTHRLADFLSRSGGVGKNNFVPTNVGSKAF-NH2; disulfide 1-6) | ≥ 2 | more than 30% | ≥ 2 h | more than 30% | significantly strong as compared with c-CGRP | stronger than those of h-CGRP administered in quadruple the amounts | stronger | stronger than those of h-CGRP | ≥ 2 | more than 30% | ≥ 2 h | more than 30% | significantly strong as compared with c-CGRP | stronger than those of h-CGRP administered in quadruple the amounts | stronger | stronger than those of h-CGRP |
| more than 10.25 | CC(C)C[C@H](NC(=O)[C@H](CCCNC(=N)N)NC(=O)[C@H](Cc1c[nH]cn1)NC(=O)[C@@H](NC(=O)[C@@H](NC(=O)[C@@H]1CCCCCC(=O)N[C@@H](CC(N)=O)C(=O)N[C@@H]([C@@H](C)O)C(=O)N[C@@H](C)C(=O)N[C@@H]([C@@H](C)O)C(=O)N1)C(C)C)[C@@H](C)O)C(=O)N[C@@H](C)C(=O)N[C@@H](CC(=O)O)C(=O)N[C@@H](Cc1ccccc1)C(=O)N[C@@H](CC(C)C)C(=O)N[C@@H](CO)C(=O)N[C@@H](CCCNC(=N)N)C(=O)N[C@@H](CO)C(=O)NCC(=O)NCC(=O)N[C@H](C(=O)NCC(=O)N[C@@H](CCCCN)C(=O)N[C@@H](CC(N)=O)C(=O)N[C@@H](CC(N)=O)C(=O)N[C@@H](Cc1ccccc1)C(=O)N[C@H](C(=O)N1CCC[C@H]1C(=O)N[C@H](C(=O)N[C@@H](CC(N)=O)C(=O)N[C@H](C(=O)NCC(=O)N[C@@H](CO)C(=O)N[C@@H](CCCCN)C(=O)N[C@@H](C)C(=O)N[C@@H](Cc1ccccc1)C(N)=O)C(C)C)[C@@H](C)O)C(C)C)C(C)C [desalanyl-[Asu^2,7]-c-CGRP] (NTAT[Asu]VTHRLADFLSRSGGVGKNNFVPTNVGSKAF-NH2; lactam N-5) |  |  | more than 2 hours | more than 30% |  |  | significantly strong as compared with c-CGRP | stronger than that of h-CGRP |  |  | more than 2 hours | more than 30% |  |  | significantly strong as compared with c-CGRP | stronger than that of h-CGRP |
| more than 10.25 | CC(C)C[C@H](NC(=O)[C@H](CCCNC(=N)N)NC(=O)[C@H](Cc1c[nH]cn1)NC(=O)[C@@H](NC(=O)[C@@H](NC(=O)[C@@H]1CCCCCC(=O)N[C@@H](CC(=O)O)C(=O)N[C@@H]([C@@H](C)O)C(=O)N[C@@H](C)C(=O)N[C@@H]([C@@H](C)O)C(=O)N1)C(C)C)[C@@H](C)O)C(=O)N[C@@H](C)C(=O)N[C@@H](CC(=O)O)C(=O)N[C@@H](Cc1ccccc1)C(=O)N[C@@H](CC(C)C)C(=O)N[C@@H](CO)C(=O)N[C@@H](CCCNC(=N)N)C(=O)N[C@@H](CO)C(=O)NCC(=O)NCC(=O)N[C@H](C(=O)NCC(=O)N[C@@H](CCCCN)C(=O)N[C@@H](CC(N)=O)C(=O)N[C@@H](CC(N)=O)C(=O)N[C@@H](Cc1ccccc1)C(=O)N[C@H](C(=O)N1CCC[C@H]1C(=O)N[C@H](C(=O)N[C@@H](CC(N)=O)C(=O)N[C@H](C(=O)NCC(=O)N[C@@H](CO)C(=O)N[C@@H](CCCCN)C(=O)N[C@@H](C)C(=O)N[C@@H](Cc1ccccc1)C(N)=O)C(C)C)[C@@H](C)O)C(C)C)C(C)C [desalanyl-[Asp^3,Asu^2,7]-c-CGRP] (DTAT[Asu]VTHRLADFLSRSGGVGKNNFVPTNVGSKAF-NH2; lactam N-5) |  |  | more than 2 hours | more than 30% |  |  | significantly strong as compared with c-CGRP | stronger than that of h-CGRP |  |  | more than 2 hours | more than 30% |  |  | significantly strong as compared with c-CGRP | stronger than that of h-CGRP |
